Entries after “also recorded” stand apart in the source; their conditions may differ. Where two headings read alike, the source gives them in different places.
Columns and labels:
MCF7 Adr 10 [1] = assay: Tumor cell clonogenic assay, MCF7 ADR 10; type: cell-based, human; settings: Homo sapiens, NCI/ADR-RES, read-out: Continuous Exposure IC50, MCF7 ADR 10
Experimental: The tumor cell clonogenic assays measure clonal proliferation of tumor cells. In this assay, 300-500 cells are plated in 10 cm^2 wells, allowed to adhere overnight, and are treated the following day. Tumor cell colonies were counted after 10-12 days of culture. The times of exposure in these experiments are similar; however, the concentrations of FCS are 20% in the CFU-GM assay and 10% in the tumor cell clonogenic assays. The IC50's are calculated as described above for the MTT proliferation assays.

MCF7 WT [2] = assay: Tumor cell clonogenic assay, MCF7 WT; type: cell-based, human; settings: Homo sapiens, MCF7, read-out: Continuous Exposure IC50, MCF7 WT
MCF7 Adr 10 [3] = assay: 72 hour MTT proliferation assay, reversal of drug resistance in MCF7 Adr 10; type: cell-based, human; settings: [1c] 0 μM; for IC50: Homo sapiens, NCI/ADR-RES
Experimental: (§1) In 72 hour MTT proliferation assays using the following method, compounds 1b, 1c and 1d were assessed for inhibition of Vinca alkaloid and anthracycline drug resistance in MDR MCF7. Additionally, compounds 1b and 1c were assessed for potentiation of sensitivity to Vinca alkaloid and anthracycline drugs in the parental MCF7 WT cell line.
(§2) METHOD: 5000 cells per well were plated in 100 μl of IMDM containing 10% FCS and allowed to adhere overnight. The following day the cells were treated with N-substituted 1,4-diaminoanthraquinones and exposed to graded concentrations of antineoplastic agents. 50 μl of IMDM 10% FCS containing either vehicle or N-substituted 1,4-diaminoanthraquinones at 3 times the final tested concentration was added to cells at timed intervals. The plates were incubated for 2 hours at 37° C. to allow maximal cellular accumulation of N-substituted 1,4-diaminoanthraquinones. 40 μl aliquots of IMDM 10% FCS containing either vehicle or graded concentrations of antineoplastic drugs at 5 times the final concentration were added to treatment groups. Following this addition, 10 μl of IMDM 10% FCS containing either vehicle or N-substituted 1,4-diaminoanthraquinone at 5 times the final concentration was added to each group of wells. The cells were incubated for 72 hours after treatment. At this time the viable cells in each treatment group were estimated in a colorimetric assay by adding MTT and incubating the cells at 37° C. for 3-4 hours. The media in each well was aspirated and MTT formazan was solubilized in isopropyl alcohol acidified with 0.1 N HCl. The absorbance of the solubilized formazan was quantitated using a plate reader spectrophotometer. […] The concentrations of antineoplastic drugs which inhibited proliferation by 50% (IC50's) were estimated by calculating a percentage from the ratio: antineoplastic drug treated groups/control group absorbance and plotting the dose response curve on semilog paper. The IC50 was estimated from this curve. To assess the effects of inhibition of resistance by N-substituted 1,4-diaminoanthraquinones, the percentages were calculated relative to cell groups treated with resistance modifier alone and IC50's calculated as above. A reversal factor was calculated by dividing the IC50 to the antineoplastic drug alone (Control group) by the IC50 to antineoplastic drug in cells treated with resistance modifier.

[4] = test system: MCF7 Adr 10 human breast cancer cells; assay: Vinblastine accumulation assay, MCF7 Adr 10; type: cell-based; settings: for activity in vinblastine accumulation assay / drug accumulation: MDR MCF7
Experimental: [^3 H] vinblastine ([^3 H] VLB) was added to a final concentration of 100 nM and the cells were incubated for 2.5 hours. At this time, the cells were washed 3 times in ice cold PBS and lysed in buffer containing 0.1% Triton X-100. Net accumulation of [^3 H] vinblastine was expressed as pmol/mg protein. In [^3 H]

PKC [5] = assay: Micellar PKC screening assay; type: biochemical
From the text: The N-substituted diaminoanthraquinone, 1b, (1,4-bis-[[3'-(diethylamino)propyl]amino]anthraquinone), was identified as a PKC inhibitor in the micellar PKC screening assay and in platelets. […] Spectrophotometric analysis of 1b and lc indicated they were excellent chromophores with absorbance maxima at 648 and 600 nm in chloroform, respectively, and extinction coefficients of approximately 20,000. At these wavelengths, there was minimal absorbance by cellular components contained in the chloroform phase. These properties of 1b and 1c were utilized to determine the time course of accumulation of these compounds in MDR MCF7 Adr 10 cells.
The activities of 1a, 1b, 1c and 1d and mitoxantrone, an anthraquinone antineoplastic drug, were evaluated in vinblastine drug accumulation assays performed by the following method. […] Mitoxantrone was identified as a PKC inhibitor in miceliar PKC assays. Compound 1d (1,4-bis-[[2-(4-morpholino)ethyl]amino]anthraquinone) was only evaluated in cellular studies.

patients [6] = settings: human, in vivo; cited from earlier work
MCF7 WT [7] = assay: 72 hour MTT proliferation assay, potentiation of sensitivity in MCF7 WT; type: cell-based, human
Experimental: as §1, §2

[8] = biological target: P-glycoprotein in MCF7 Adr 10 membrane vesicles (Homo sapiens, UniProt P08183)
Sequence of P-glycoprotein in MCF7 Adr 10 membrane vesicles (P08183 whole entry): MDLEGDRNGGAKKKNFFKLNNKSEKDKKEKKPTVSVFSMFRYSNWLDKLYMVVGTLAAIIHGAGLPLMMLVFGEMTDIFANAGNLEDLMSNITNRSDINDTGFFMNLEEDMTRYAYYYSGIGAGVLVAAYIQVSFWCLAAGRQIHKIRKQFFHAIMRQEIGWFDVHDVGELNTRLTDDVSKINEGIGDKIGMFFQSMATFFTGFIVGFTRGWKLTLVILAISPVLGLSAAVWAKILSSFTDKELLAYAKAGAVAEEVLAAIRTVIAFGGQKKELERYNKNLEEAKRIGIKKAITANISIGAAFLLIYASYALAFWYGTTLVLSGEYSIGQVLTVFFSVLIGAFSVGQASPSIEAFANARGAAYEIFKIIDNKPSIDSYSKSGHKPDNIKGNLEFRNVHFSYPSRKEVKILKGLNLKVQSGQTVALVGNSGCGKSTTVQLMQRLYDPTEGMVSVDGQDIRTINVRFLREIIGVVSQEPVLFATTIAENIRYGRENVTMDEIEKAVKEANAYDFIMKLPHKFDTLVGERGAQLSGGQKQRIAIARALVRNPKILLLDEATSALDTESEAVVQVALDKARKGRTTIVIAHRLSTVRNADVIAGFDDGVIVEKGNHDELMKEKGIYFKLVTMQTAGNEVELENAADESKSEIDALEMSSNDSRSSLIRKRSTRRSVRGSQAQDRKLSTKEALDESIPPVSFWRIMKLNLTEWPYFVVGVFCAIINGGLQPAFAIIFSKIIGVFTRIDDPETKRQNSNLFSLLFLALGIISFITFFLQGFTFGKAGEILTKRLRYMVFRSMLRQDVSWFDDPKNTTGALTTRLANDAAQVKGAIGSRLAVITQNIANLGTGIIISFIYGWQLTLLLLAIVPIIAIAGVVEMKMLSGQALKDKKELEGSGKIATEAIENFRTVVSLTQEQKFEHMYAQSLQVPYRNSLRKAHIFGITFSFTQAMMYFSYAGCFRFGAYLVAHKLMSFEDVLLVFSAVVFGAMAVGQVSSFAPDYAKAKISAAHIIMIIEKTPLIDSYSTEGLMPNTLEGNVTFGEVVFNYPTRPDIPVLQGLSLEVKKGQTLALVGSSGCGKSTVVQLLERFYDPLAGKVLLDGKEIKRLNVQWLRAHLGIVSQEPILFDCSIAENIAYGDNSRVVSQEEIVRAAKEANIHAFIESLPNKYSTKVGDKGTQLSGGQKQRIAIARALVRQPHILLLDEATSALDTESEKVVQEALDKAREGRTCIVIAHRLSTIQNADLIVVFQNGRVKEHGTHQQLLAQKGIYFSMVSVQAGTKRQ

[9] = [3H] VLB binding to MCF7 WT membrane vesicles; set-up: species or system human; settings: MCF7 WT vesicles
Experimental: METHOD: Membrane vesicles from sensitive and MDR MCF7 were prepared by nitrogen cavitation and isolated by centrifugation in discontinuous sucrose gradients. […] In the presence of 100 nM [^3 H] VLB and ATP, total and nonspecific binding of [^3 H] VLB (experimentally defined as binding in the presence of a 100 μM unlabeled VLB) was measured. Association of [^3 H] […] In contrast, association of [^3 H] […] VLB with MCF7 WT vesicles.

MDR cell lines = settings: literature, cited from earlier work
[10] = Partition in Bligh-Dyer extracts; type: physicochemical
Experimental: At these wavelengths, there was minimal absorbance by cellular components contained in the chloroform phase. […] METHOD: […] The monolayers were treated with 25 μM 1b or 1c and incubated at 37° C. After incubating the samples for the times indicated in FIG. 1, the monolayers were washed three times with DPBS and detached using 1 ml of Trypsin-EDTA.An aliquot of the cell suspension was counted using a Coulter Counter and a 0.8 ml aliquot was extracted in a Bligh-Dyer extraction (Bligh et at., Can. J. Biochem. 31:911-916 (1959)). The absorbance of the lower chloroform phase was measured at 648 nm and 600 nm using a spectrophotometer. The amount of 1b or 1c present in the extract was quantitated from a standard curve performed in cell extracts. The data is expressed as nmol anthraquinone/10^6 cells.

casein kinase 2 = assay: Casein kinase 2 inhibition; type: biochemical
From the text: One possible explanation for stimulation of phosphorylation of P-glycoprotein and MARCKS is that 1c may activate PKC or other cellular kinases by signal transduction pathways that have not yet been identified to phosphorylate these proteins. An alternative explanation for stimulation of phosphorylation of P-glycoprotein and MARCKS is that 1c inhibits protein phosphatases.

P-glycoprotein [11] = settings: literature; cited from earlier work
[12] = test system: patients with tumors clinically resistant to adriamycin; settings: cited from earlier work
PKC [13] = settings: literature; cited from earlier work
patients [14] = settings: cited from earlier work
P-glycoprotein [15] = settings: intact MDR cells and MDR membrane vesicles; cited from earlier work

COc1cccc2c1C(=O)c1c(O)c3c(c(O)c1C2=O)C[C@@](O)(C(=O)CO)C[C@@H]3O[C@H]1C[C@H](N)[C@H](O)[C@H](C)O1 [ADR, reference compound]
IC50 (MCF7 Adr 10 [1]): 3400 nM
IC50 (MCF7 WT [2]): 5.6 nM
IC50 (MCF7 Adr 10 [3]; average ± SD of 4 experiments, read-out: ADR IC50): 38000 nM
Reversal Factor (ADR) (MCF7 Adr 10 [3]): 1.0

CCCCCCCCNc1ccc(NCCCCCCCC)c2c1C(=O)c1ccccc1C2=O [Compound 1a, 1,4-bis-(octylamino) anthraquinone]
activity in vinblastine accumulation assay / drug accumulation [4]: inactive; also recorded: did not show significant activity
PKC activity in micellar PKC screening assay (PKC [5]): PKC stimulation

O=C1c2ccccc2C(=O)c2c(NCCN3CCOCC3)ccc(NCCN3CCOCC3)c21 [Compound 1d, 1,4-bis-[[2-(4-morpholino)ethyl]amino]anthraquinone]
minimal effective concentration ([4]; Homo sapiens, NCI/ADR-RES, 100 nM [3H] VLB, 2.5 hours, FIGS. 2 and 3, read-out: lowest concentration which causes a doubling of basal accumulation of vinblastine): 2.5 µM
activity in vinblastine accumulation assay / drug accumulation [4]: increase vinblastine accumulation in MDR MCF7

COc1ccc(CCN(C)CCC[C@](C#N)(c2ccc(OC)c(OC)c2)C(C)C)cc1OC [D-verapamil]
toxicity in humans (patients [6]): too toxic to use at high concentrations in humans

COc1cccc2c1C(=O)c1c(O)c3c(c(O)c1C2=O)C[C@@](O)(C(C)=O)C[C@@H]3O[C@H]1C[C@H](N)[C@H](O)[C@H](C)O1 [DNR, reference compound]
IC50 (MCF7 Adr 10 [3]; average ± SD of 3 experiments, read-out: DNR IC50): 6700 nM
Reversal Factor (DNR) (MCF7 Adr 10 [3]): 1.0

CC[C@]1(O)C[C@H]2CN(CCc3c([nH]c4ccccc34)[C@@](C(=O)OC)(c3cc4c(cc3OC)N(C=O)[C@H]3[C@@](O)(C(=O)OC)[C@H](OC(C)=O)[C@]5(CC)C=CCN6CC[C@]43[C@@H]65)C2)C1 [VCR, reference compound]
IC50 (MCF7 Adr 10 [1]): 970 nM
IC50 (MCF7 WT [2]): 0.4 nM
IC50 (MCF7 WT [7]; Homo sapiens, MCF7, read-out: VCR IC50): 1.9 nM
Reversal Factor (VCR) (MCF7 WT [7]; [1c] 0 μM, MCF7 WT): 1.0
IC50 (MCF7 Adr 10 [3]; average ± SD of 3 experiments, read-out: VCR IC50): 3300 nM
Reversal Factor (VCR) (MCF7 Adr 10 [3]): 1.0

CCC1(O)CC2CN(CCc3c([nH]c4ccccc34)C(C(=O)OC)(c3cc4c(cc3OC)N(C)C3C(O)(C(=O)OC)C(OC(C)=O)C5(CC)C=CCN6CCC43C65)C2)C1 (centres unmarked) [[^3 H] VLB]
enhancement of [3H] VLB association by addition of ATP [8]: 2-3 fold
time to maximal association of [3H] VLB [8]: ≤ 15 min
association of [3H] VLB relative to MCF7 Adr 10 [9]: approximately 15%

O=C1c2c(O)ccc(O)c2C(=O)c2c(NCCNCCO)ccc(NCCNCCO)c21 [mitoxantrone, reference compound]
activity in vinblastine accumulation assay / drug accumulation [4]: significant loss of activity; also recorded: did not show significant activity
activity in vinblastine accumulation assay / drug accumulation ([4]; listed as Mitoxantrone): does not increase drug accumulation
drug accumulation and reversal of resistance in MDR cell lines (MDR cell lines): less cross-resistance
partition into the lower chloroform phase [10]: does not partition into the lower chloroform phase
PKC activity in micellar PKC screening assay (PKC [5]): PKC inhibitor
inhibitory activity in in vitro PKC assays relative to 1b or 1c (PKC [5]): greater inhibitory activity
inhibitory activity in in vitro casein kinase 2 assays relative to 1b or 1c (casein kinase 2): greater inhibitory activity

CCCCCCCCCCCCCC(=O)O[C@@H]1[C@@H](C)[C@@]2(O)[C@@H](C=C(CO)C[C@]3(O)C(=O)C(C)=C[C@@H]23)[C@@H]2C(C)(C)[C@]12OC(C)=O [phorbol myristate acetate]
phosphorylation of the P-glycoprotein (P-glycoprotein [11]): stimulate phosphorylation of the P-glycoprotein

CN(C)CCOc1ccc(/C(=C(/CCCl)c2ccccc2)c2ccccc2)cc1 [toremifene]
drug accumulation and reversal of resistance in MDR cell lines (MDR cell lines): can also modulate resistance of estrogen receptor-negative MDR cell lines

CN1CCN(CCCN2c3ccccc3Sc3ccc(C(F)(F)F)cc32)CC1 [trifluoperazine]
drug accumulation and reversal of resistance in MDR cell lines (MDR cell lines): increase drug accumulation and decrease resistance in MDR cell lines
tumor responses ([12]; 36 patients, oral, with constant infusion adriamycin): One complete response and six partial responses
dose-limiting toxicity ([12]; human, in vivo): Neurotoxicity of trifluoperazine to the extrapyramidal tracts was dose-limiting
plasma concentrations below those optimal for modulation of chemoresistance in vitro ([12]; human, in vivo): approximately 10 fold
phosphorylation of the P-glycoprotein (P-glycoprotein [11]): stimulate phosphorylation of the P-glycoprotein
PKC inhibition in vitro (PKC [13]): non-specifically inhibit PKC in vitro

COc1ccc(CCN(C)CCCC(C#N)(c2ccc(OC)c(OC)c2)C(C)C)cc1OC (centres unmarked) [verapamil]
concentrations inhibiting the MDR phenotype (MDR cell lines): 2 to 10 µM
drug accumulation and reversal of resistance in MDR cell lines (MDR cell lines): more effective in reversal of resistance to anticancer drugs in other studies
drug accumulation and reversal of resistance in MDR cell lines (MDR cell lines; listed as Verapamil): increases in accumulation and decreases in resistance to natural product chemotherapeutic drugs
dose-limiting toxicity (patients [14]): dose-limiting cardiac toxicity
PKC inhibition in vitro (PKC [13]): non-specifically inhibit PKC in vitro

O-acetyl C9 -cyclosporin A [SDZ 33-243]
[3H] azidopine photoaffinity labeling of P-glycoprotein (P-glycoprotein [15]): inhibit
